Literature values, collected in patent US7115654B2, “Caspase-1 inhibitors and methods for their use” (Sunesis Pharmaceuticals, Inc., priority 2002, dated 2006).

Tested on: embryonic nigral cell suspension

Substance: Ac-YVAD-cmk
- functional recovery (hemiparkinsonian rats): substantially improved
- survival of dopaminergic neurons (neurons grafted to hemiparkinsonian rats): increased
- apoptosis in transplants (treatment of the embryonic nigral cell suspension): reduced
- DNA fragmentation (treatment of the embryonic nigral cell suspension, in transplants): mitigated
